Assay results taken from paper PMC3985299, “Single Ascending Dose Safety and Pharmacokinetics of CDRI-97/78: First-in-Human Study of a Novel Antimalarial Drug” (Malaria Research and Treatment, 2014).
Several values for one entry are separate records, joined by “and”; a condition that tells them apart may be missing. Equal values may be shown once. Read-outs that look alike come from different tables or passages of the source.

Tests used:
[1] = Single oral dose (200 mg) pharmacokinetic study, plasma LC-MS/MS, noncompartmental analysis; assay type: in vivo, human
Procedure: For pharmacokinetic (PK) study, eligible participants were admitted and housed in the clinical pharmacology unit an evening prior to the PK study. A standard dinner was served and a fasting condition for at least 10 hrs prior to dosing and 4 hrs after dosing was ensured. A peripheral forearm vein was cannulated for sampling for the PK analysis. 200 mg of the study drug was administered with 300 mL of water. The time of actual dose administration to the nearest minute was recorded. 2.5 mL of blood was collected from the indwelling cannula at 0 (before dose), 0.25, 0.5, 0.75, 1, 1.5, 2, 4, 6, 8, 12, 18, 24, 48, 72, 96, 120, and 144 hrs (after dose). 10 mL of additional blood was collected at 0 (before dose) and 24 hr (after dose) for laboratory parameters for safety assessment and PK control sample. A time window of ±2 minutes was permitted for collecting the post dose samples from the scheduled time for PK analysis. Plasma was separated from blood sample intended for PK analysis, within 1 hour of blood sampling, by centrifugation at 2000 rpm for 10 min at 4°C. Samples were stored at −80°C pending transportation. Heparinised blood samples were transported to the laboratory within 7 days of collection. Quantitative analyses of clinical phase ascending dose and single dose PKs samples were done at GLP lab of Pharmacokinetics and Metabolism Division, CDRI, Lucknow, India. α-Arteether was used as an internal standard and all the analyses were performed as per the published method by Singh et al. 2009 [19]. Acceptance criteria for analytical runs were fixed as per internationally approved guidelines. Data acquisition and quantitation were performed using analyst software version 1.4 (Applied Biosystems, MDS SCIEX Toronto, Canada). PK parameters were estimated by using WinNonlin software (Version 1.5, Pharsight Corporation, Mountain View, CA). Oral data were best fitted in noncompartmental model. The individual plasma concentration-time profiles were subjected to noncompartmental analysis to determine various PK parameters. The PK parameters included the terminal elimination half-life (T 1/2), maximum plasma concentration (C max), time to reach maximum plasma concentration (T max), area under the curve (AUC0–∞), and mean residence time (MRT).

[2] = set-up: method as in printed; settings: background statement, ref not given; cited from earlier work
[3] = 97/63 after oral 97/78 200 mg single dose, Mean ± SEM, N = 16
[4] = 97/63 in plasma after oral 97/78 200 mg single dose, individual volunteers 1-16
[5] = human, plasma, po, 200 mg, 97/63 after oral 97/78 200 mg single dose, Mean ± SEM, N = 16

For `C=C(c1ccc(OC(C)(C)CO)cc1)C1COC2(OO1)C1CC3CC(C1)CC2C3` (stereo not drawn) [97/63], the “AUC0−∞” value [1, 3] was 878.74 ± 133.15 ng·h/mL, the MRT [1, 3] was 13.77 ± 2.05 h and the “AUC0−∞” value [1, 4] was 788.7 ng·h/mL and 1898.9 ng·h/mL and 935 ng·h/mL and 356.1 ng·h/mL and 583.6 ng·h/mL and 696.8 ng·h/mL and 833.1 ng·h/mL and 984.1 ng·h/mL and 104.8 ng·h/mL and 1644 ng·h/mL and 602.6 ng·h/mL and 785 ng·h/mL and 1522.6 ng·h/mL and 207.9 ng·h/mL and 1604.9 ng·h/mL and 511.7 ng·h/mL. For the same compound, the C max [1, 4] was 172 ng/mL and 295 ng/mL and 47.4 ng/mL and 50.4 ng/mL and 65.4 ng/mL and 105 ng/mL and 55 ng/mL and 123 ng/mL and 20.1 ng/mL and 373 ng/mL and 187 ng/mL and 149 ng/mL and 355 ng/mL and 42.6 ng/mL and 202 ng/mL and 60.9 ng/mL, the MRT [1, 4] was 12.57 h and 9.76 h and 30.72 h and 14.53 h and 11.26 h and 18.37 h and 32.20 h and 18.52 h and 5.72 h and 13.7 h and 3.53 h and 5.38 h and 14.25 h and 6.42 h and 14.13 h and 9.28 h and the “T 1/2” value [1, 4] was 13.89 h and 11.63 h and 24.26 h and 14.50 h and 10.10 h and 17.73 h and 24.51 h and 18.90 h and 2.17 h and 4.78 h and 2.20 h and 3.88 h and 21.27 h and 3.00 h and 8.94 h and 7.80 h. For the same compound, the T max [1, 4] was 1.5 h (5×) and 2 h (6×) and 4 h (4×) and 1 h, the “First time at which quantified in plasma” value ([1]; after oral 97/78 200 mg) was 0.5 h and the “Last time at which quantified in plasma” value ([1]; after oral 97/78 200 mg, two volunteers up to 72 h) was “up to 48 h”. The Cmax [1, 5] was 144 ± 28.3 ng/mL, the Tmax [1, 5] was 2.28 ± 0.27 h and the AUC(0-inf) ([1]; male, human, plasma, po, 200 mg, 97/63 after oral 97/78 200 mg single dose, Mean ± SEM, N = 16) was 845 ± 143 ng·h/mL. The MRT ([1]; male, human, plasma, po, 200 mg, 97/63 after oral 97/78 200 mg single dose, Mean ± SEM, N = 16, read-out: MRT) was 9.73 ± 1.06 h, the Cmax ([1]; male, human, plasma, po, 200 mg, 97/63 after oral 97/78 200 mg, mean, as given in text without unit) was 144 ± 28.3 ng/mL and the Bioavailability [2] was “poor”.
